Structures are written as SMILES. Where two headings read alike, the source gives them in different places.

Three molecules from US6555528B2 (Board of Supervisors of Louisiana State University and …, priority 1999, dated 2003) can be followed below.

Series [1] deals with T1, biotin carboxylase from Escherichia coli (Escherichia coli, UniProt P24182).
T1 construct: histidine-tag (N); made in house; host or cells: E. coli BL21(DE3)pLysS
Description: Biotin carboxylase inhibition assay (spectrophotometric, ADP production coupled to pyruvate kinase/lactate dehydrogenase). The format is biochemical. The protocol:
It catalyzes the first partial reaction shown above as reaction (1). […] See S. Li et al., J. Biol. Chem., vol. 267, 855-863 (1992); and H. Kondo et al., Proc. Natl. Acad. Sci. USA, vol. 88, pp. 9730-9733 (1991).
Purification was performed with a histidine-tag attached to the amino terminus of a mutant form of the enzyme and nickel affinity chromatography as described in C. […] 38, pp. 3393-3400 (1999).
The amount of ADP was determined using pyruvate kinase and lactate dehydrogenase, and the oxidation of NADH was followed at 340 nm. Each measurement was carried out in a volume of 0.5 ml in 1 cm path length quartz cuvettes. The reaction mixture contained 10 units of pyruvate kinase, 18 units of lactate dehydrogenase, 0.5 mM phosphoenolpyruvate, 0.2 mM NADH, 8 mM MgCl2 and 100 mM HEPES at pH 8.0. For inhibition studies compound 1 was dissolved in water, and the pH adjusted to 8 with HCl. The concentration of compound 1 was assayed by phosphorus analysis using the method of B. Ames et al., J. Biol. Chem., vol. 235, pp. 769-775 (1960).

Series [2] is described as follows: Water solubility (observation at synthesis). The class given is physicochemical.

Regarding `O=C(O)CCCCC1SCC2C1NC(=O)N2C(=O)CP(=O)(O)O` (stereo not drawn) [Compound 1, 5-(6,8-Diaza-7-oxo-6-(2-phosphonoacetyl)-3-thiabicyclo[3.3.0] Oct-2-yl) pentanoic acid], the Ki in series [1] (competitive inhibition versus ATP, read-out: slope inhibition constant) was 8 mM; in series [1] (preliminary characterization, 9 mM bicarbonate, 0.1 mM ATP, 100 mM biotin, pH 8.0, read-out: inhibition constant) it was roughly 8 mM. Also, the water solubility result in series [2] was “water soluble”.
As to `O=C(O)CP(=O)(O)O` [Phosphonoacetate], the “type of inhibition versus ATP” value in series [1] (versus ATP) is listed as “competitve inhibition”. For the same molecule, in series [1] (versus bicarbonate), the “type of inhibition versus bicarbonate” value is recorded as “noncompetitve inhibition”.
For the molecule `O=C(O)CCCC[C@@H]1SC[C@@H]2NC(=O)N[C@@H]21` [biotin], in series [1] (biotin as substrate), the “substrate inhibition of biotin carboxylase” value is on record as “noncompetitive substrate inhibitor”.
